# Several values for one entry are separate records, joined by “and”; a condition that tells them apart may be missing. Identical values can stand only once.
# Assays:
# [1] = Solubility of spironolactone; assay type: physicochemical; settings: with the help of Pluronic F127
# Procedure: The present inventors were able to get spironolactone into solution at 0.015 mg/ml with the help of Pluronic F127.
# [2] = tested on: patients with moderate to severe MGD; assay: Clinical trial (Example 8): topical Spironolactone (3 mg/ml) in MGD, retrospective pre-post; settings: for improvement in self-reported global assessment scores / mean improvement in obstruction score / mean improvement in turbidity score / mean improvement in vascularity score / mean improvement in zone A score: positive = score decrease; for Anterior Blepharitis, mean change / Obstruction, mean change / Turbidity, mean change / Vascularity, mean change / Zone A, mean change / Anterior Blepharitis, Mean / Obstruction, Mean / Turbidity, Mean / Vascularity, Mean / Zone A, Mean: scale 0-4; for Subjective Global Assessment, mean change / Global Evaluation, Mean: scale 0-10
# [3] = baseline vs follow up 1, low Schirmer's, n=27
# [4] = baseline vs follow up 1, low Schirmer's, n=27, scale 0-3
# [5] = baseline vs follow up 1, normal Schirmer's, n=75
# [6] = final follow-up, patients with >1 follow-ups, low Schirmer's, n=10
# [7] = final follow-up, patients with >1 follow-ups, low Schirmer's, n=10, scale 0-3
# [8] = final follow-up, patients with >1 follow-ups, normal Schirmer's, n=28
# [9] = final follow-up, patients with >1 follow-ups, normal Schirmer's, n=28, scale 0-3
# [10] = follow-up 1, low Schirmer's, n=27 (FIG. 10)
# [11] = follow-up 1, normal Schirmer's, n=75 (FIG. 9)
# [12] = follow-up 1, patients with >1 follow-ups, low Schirmer's, n=10
# [13] = follow-up 1, patients with >1 follow-ups, low Schirmer's, n=10, scale 0-3
smiles,measurement,setting,value
"CC(=O)SC1CC2=CC(=O)CCC2(C)C2CCC3(C)C(CCC34CCC(=O)O4)C12 (stereo not drawn) [spironolactone, 7α-acetylthio-3-oxo-17α-pregn-4-ene-21,17-carbolactone]",concentration brought into solution,[1],15000 ng/mL
same,"Schirmer's OD, mean change",[2]; [3],2.61±7.03 mm and 2.611 mm
same,"Schirmer's OS, mean change",[2]; [3],2.33±4.74 mm and 2.327 mm
same,"Vision OS, mean change",[2]; [3],−0.0198±0.078 log Mar units and −0.0198 log Mar units
same,improvement in self-reported global assessment scores,[2]; [3],0.98±2.18
same,mean improvement in obstruction score,[2]; [3],0.39±1.48
same,mean improvement in turbidity score,[2]; [3],0.69±0.76
same,mean improvement in vascularity score,[2]; [3],0.33±0.55
same,mean improvement in zone A score,[2]; [3],0.63±1.21
same,"Keratitis OS Corneal, mean change",[2]; [4],0±0.4 and 0
same,"Keratitis OS Nasal, mean change",[2]; [4],0.15±0.70 and 0.1538
same,"Keratitis OS Temporal, mean change",[2]; [4],0.038±0.56 and 0.03846
same,"Anterior Blepharitis, mean change",[2]; [3],0.0±0.64 and 0
same,"Obstruction, mean change",[2]; [3],−0.3889
same,"Turbidity, mean change",[2]; [3],−0.6852
same,"Vascularity, mean change",[2]; [3],−0.3333
same,"Zone A, mean change",[2]; [3],−0.6296
same,"Subjective Global Assessment, mean change",[2]; [3],−0.9815
same,"Schirmer's OD, mean change",[2]; [5],0.11±8.07 mm and 0.1096 mm
same,"Schirmer's OS, mean change",[2]; [5],0.92±9.43 mm and 0.9178 mm
same,improvement in self-reported global assessment scores,[2]; [5],1.29±1.80
same,mean improvement in obstruction score,[2]; [5],0.36±0.90
same,mean improvement in turbidity score,[2]; [5],0.93±0.73
same,mean improvement in vascularity score,[2]; [5],0.31±0.713
same,mean improvement in zone A score,[2]; [5],0.53±0.83
same,"Keratitis OS Corneal, mean change","[2]; baseline vs follow up 1, normal Schirmer's, n=75, scale 0-3",0±0.32 and 0
same,"Anterior Blepharitis, mean change",[2]; [5],0.04±0.70 and 0.04
same,"Obstruction, mean change",[2]; [5],−0.3633
same,"Turbidity, mean change",[2]; [5],−0.9267
same,"Vascularity, mean change",[2]; [5],−0.31
same,"Zone A, mean change",[2]; [5],−0.5533
same,"Subjective Global Assessment, mean change",[2]; [5],−1.287
same,"Schirmer's OD, Mean",[2]; [6],11.7±10.94 and 11.7
same,"Schirmer's OS, Mean",[2]; [6],8.78±9.98 and 8.778
same,"Vision OD, Mean",[2]; [6],0.13±0.15 log Mar units and 0.1264 log Mar units
same,"Vision OS, Mean",[2]; [6],0.11±0.11 log Mar units and 0.1059 log Mar units
same,"Keratitis OD Corneal, Mean",[2]; [7],0.0±0.0 and 0
same,"Keratitis OD Nasal, Mean",[2]; [7],0.75±0.63 and 0.75
same,"Keratitis OD Temporal, Mean",[2]; [7],0.7±0.71 and 0.7
same,"Keratitis OS Corneal, Mean",[2]; [7],0.33±0.5 and 0.3333
same,"Keratitis OS Nasal, Mean",[2]; [7],1.06±0.92 and 1.056
same,"Keratitis OS Temporal, Mean",[2]; [7],0.83±0.79 and 0.8333
same,"Anterior Blepharitis, Mean",[2]; [6],0.2±0.42 and 0.2
same,"Obstruction, Mean",[2]; [6],0.75±0.42 and 0.75
same,"Turbidity, Mean",[2]; [6],2.1±0.74 and 2.1
same,"Vascularity, Mean",[2]; [6],1.4±0.77 and 1.4
same,"Zone A, Mean",[2]; [6],2.8±0.79 and 2.8
same,"Global Evaluation, Mean",[2]; [6],4.4±2.62 and 4.4
same,"Schirmer's OD, Mean",[2]; [8],18.52±9.83 and 18.52
same,"Schirmer's OS, Mean",[2]; [8],17.04±8.48 and 17.04
same,"Vision OD, Mean",[2]; [8],0.05±0.18 log Mar units and 0.04593 log Mar units
same,"Vision OS, Mean",[2]; [8],0.05±0.12 log Mar units and 0.04933 log Mar units
same,"Keratitis OD Corneal, Mean",[2]; [9],0.0±0.0 and 0
same,"Keratitis OD Nasal, Mean",[2]; [9],0.63±0.63 and 0.625
same,"Keratitis OD Temporal, Mean",[2]; [9],0.55±0.60 and 0.5536
same,"Keratitis OS Corneal, Mean",[2]; [9],0.16±0.49 and 0.1607
same,"Keratitis OS Nasal, Mean",[2]; [9],0.75±0.57 and 0.75
same,"Keratitis OS Temporal, Mean",[2]; [9],0.70±0.57 and 0.6964
same,"Anterior Blepharitis, Mean",[2]; [8],0.32±0.78 and 0.3214
same,"Obstruction, Mean",[2]; [8],1.05±0.71 and 1.054
same,"Turbidity, Mean",[2]; [8],1.80±0.83 and 1.804
same,"Vascularity, Mean",[2]; [8],1.13±0.91 and 1.125
same,"Zone A, Mean",[2]; [8],2.71±0.80 and 2.714
same,"Global Evaluation, Mean",[2]; [8],3.55±1.30 and 3.554
same,increase in Schirmer's I scores,"[2]; follow-up 1, low Schirmer's, n=27",approximately 40%
same,percent reduction in Global Evaluation score from baseline,[2]; [10],22.98%
same,percent reduction in Turbidity score from baseline,[2]; [10],30.70%
same,percent reduction in Vascularity score from baseline,[2]; [10],30.48%
same,percent reduction in Zone A score from baseline,[2]; [10],22.65%
same,percent reduction in Global Evaluation score from baseline,[2]; [11],27.52%
same,percent reduction in Obstruction score from baseline,[2]; [11],31.23%
same,percent reduction in Turbidity score from baseline,[2]; [11],41.82%
same,percent reduction in Vascularity score from baseline,[2]; [11],24.51%
same,percent reduction in Zone A score from baseline,[2]; [11],19.86%
same,"Schirmer's OD, Mean",[2]; [12],8.8±6.7 and 8.8
same,"Schirmer's OS, Mean",[2]; [12],7.22±5.19 and 7.222
same,"Vision OD, Mean",[2]; [12],0.07±0.10 log Mar units and 0.06633 log Mar units
same,"Vision OS, Mean",[2]; [12],0.09±0.14 log Mar units and 0.08737 log Mar units
same,"Keratitis OD Corneal, Mean",[2]; [13],0.0±0.0 and 0
same,"Keratitis OD Nasal, Mean",[2]; [13],0.60±0.66 and 0.6
same,"Keratitis OD Temporal, Mean",[2]; [13],0.65±0.71 and 0.65
same,"Keratitis OS Corneal, Mean",[2]; [13],0.22±0.44 and 0.2222
same,"Keratitis OS Nasal, Mean",[2]; [13],1.28±0.57 and 1.278
same,"Keratitis OS Temporal, Mean",[2]; [13],1.0±0.66 and 1
same,"Anterior Blepharitis, Mean",[2]; [12],0.3±0.67 and 0.3

# From patent publication US20190328753A1, “COMPOSITIONS AND METHODS FOR TREATING OCULAR DISEASES” (priority 2015, published 2019)
